In patent publication US12448369B2 (Edgewise Therapeutics, Inc., priority 2023, dated 2025):
Marks after values point to notes of the source that are not given here.

How the values were obtained:
[1] = system: Rabbit Psoas myofibrils (skeletal myosin ATPase); assay: Myofibril ATPase assay, rabbit psoas (skeletal) myofibrils; format: biochemical
Procedure, shortened: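 ATPase activity of Triton-washed myofibrils was measured by PK/LDH coupling, following NADH loss at 340 nm every 1.5–2 min for 75 min in PIPES/Ca/EGTA buffer at pH 7.0. Slopes, normalized to vehicle (100%), were fitted to a 4-parameter logistic model. Values are Y75 (25% inhibition) or Y125 (activators).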

[2] = system: Porcine atria myofibrils (atrial myosin ATPase); assay: Myofibril ATPase assay, porcine atria myofibrils; format: biochemical
Procedure, shortened: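 Porcine atrial myofibrils were tested in a PK/LDH-coupled system where ADP from myosin ATPase drives NADH oxidation. Absorbance at 340 nm was read every 1.5-2 min for 75 min and slopes were normalized to vehicle wells. A 4-parameter logistic fit gave Y75 (25% inhibition) or Y125 (activation) concentrations.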

[3] = target: T1, Porcine ventricle myofibrils (ventricular myosin ATPase) (Sus scrofa, UniProt P79293); assay: Myofibril ATPase assay, porcine ventricle myofibrils; format: biochemical, porcine (Yucatan minipigs)
T1 construct: Myofibrils from porcine cardiac muscle was isolated from the left ventricle of Yucatan minipigs; tissue Exemplar Genetics; host or cells: left ventricle of Yucatan minipigs, myofibrils prepared in house
Procedure, shortened: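 Left-ventricle myofibrils from Yucatan minipigs were tested with a PK/LDH-coupled system, following NADH loss at 340 nm every 1.5-2 min for 75 min. Slopes were normalized to vehicle wells and fit to a 4-parameter logistic model; values are Y75 (25% ATPase reduction) or Y125 concentrations.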

[4] = Y75 value (no ‡ mark), rabbit psoas myofibrils
[5] = Y75 value (no ‡ mark), porcine atria myofibrils
[6] = Y75 value (no ‡ mark), porcine ventricle myofibrils
[7] = rabbit psoas myofibrils, Y75 value
[8] = porcine atria myofibrils, Y75 value (75% activity relative to no compound)
[9] = porcine ventricle myofibrils, Y75 value
[10] = ‡ Y125 value, not a Y75 value (125% activity relative to no compound), rabbit psoas myofibrils

T1 sequence (P79293 whole entry): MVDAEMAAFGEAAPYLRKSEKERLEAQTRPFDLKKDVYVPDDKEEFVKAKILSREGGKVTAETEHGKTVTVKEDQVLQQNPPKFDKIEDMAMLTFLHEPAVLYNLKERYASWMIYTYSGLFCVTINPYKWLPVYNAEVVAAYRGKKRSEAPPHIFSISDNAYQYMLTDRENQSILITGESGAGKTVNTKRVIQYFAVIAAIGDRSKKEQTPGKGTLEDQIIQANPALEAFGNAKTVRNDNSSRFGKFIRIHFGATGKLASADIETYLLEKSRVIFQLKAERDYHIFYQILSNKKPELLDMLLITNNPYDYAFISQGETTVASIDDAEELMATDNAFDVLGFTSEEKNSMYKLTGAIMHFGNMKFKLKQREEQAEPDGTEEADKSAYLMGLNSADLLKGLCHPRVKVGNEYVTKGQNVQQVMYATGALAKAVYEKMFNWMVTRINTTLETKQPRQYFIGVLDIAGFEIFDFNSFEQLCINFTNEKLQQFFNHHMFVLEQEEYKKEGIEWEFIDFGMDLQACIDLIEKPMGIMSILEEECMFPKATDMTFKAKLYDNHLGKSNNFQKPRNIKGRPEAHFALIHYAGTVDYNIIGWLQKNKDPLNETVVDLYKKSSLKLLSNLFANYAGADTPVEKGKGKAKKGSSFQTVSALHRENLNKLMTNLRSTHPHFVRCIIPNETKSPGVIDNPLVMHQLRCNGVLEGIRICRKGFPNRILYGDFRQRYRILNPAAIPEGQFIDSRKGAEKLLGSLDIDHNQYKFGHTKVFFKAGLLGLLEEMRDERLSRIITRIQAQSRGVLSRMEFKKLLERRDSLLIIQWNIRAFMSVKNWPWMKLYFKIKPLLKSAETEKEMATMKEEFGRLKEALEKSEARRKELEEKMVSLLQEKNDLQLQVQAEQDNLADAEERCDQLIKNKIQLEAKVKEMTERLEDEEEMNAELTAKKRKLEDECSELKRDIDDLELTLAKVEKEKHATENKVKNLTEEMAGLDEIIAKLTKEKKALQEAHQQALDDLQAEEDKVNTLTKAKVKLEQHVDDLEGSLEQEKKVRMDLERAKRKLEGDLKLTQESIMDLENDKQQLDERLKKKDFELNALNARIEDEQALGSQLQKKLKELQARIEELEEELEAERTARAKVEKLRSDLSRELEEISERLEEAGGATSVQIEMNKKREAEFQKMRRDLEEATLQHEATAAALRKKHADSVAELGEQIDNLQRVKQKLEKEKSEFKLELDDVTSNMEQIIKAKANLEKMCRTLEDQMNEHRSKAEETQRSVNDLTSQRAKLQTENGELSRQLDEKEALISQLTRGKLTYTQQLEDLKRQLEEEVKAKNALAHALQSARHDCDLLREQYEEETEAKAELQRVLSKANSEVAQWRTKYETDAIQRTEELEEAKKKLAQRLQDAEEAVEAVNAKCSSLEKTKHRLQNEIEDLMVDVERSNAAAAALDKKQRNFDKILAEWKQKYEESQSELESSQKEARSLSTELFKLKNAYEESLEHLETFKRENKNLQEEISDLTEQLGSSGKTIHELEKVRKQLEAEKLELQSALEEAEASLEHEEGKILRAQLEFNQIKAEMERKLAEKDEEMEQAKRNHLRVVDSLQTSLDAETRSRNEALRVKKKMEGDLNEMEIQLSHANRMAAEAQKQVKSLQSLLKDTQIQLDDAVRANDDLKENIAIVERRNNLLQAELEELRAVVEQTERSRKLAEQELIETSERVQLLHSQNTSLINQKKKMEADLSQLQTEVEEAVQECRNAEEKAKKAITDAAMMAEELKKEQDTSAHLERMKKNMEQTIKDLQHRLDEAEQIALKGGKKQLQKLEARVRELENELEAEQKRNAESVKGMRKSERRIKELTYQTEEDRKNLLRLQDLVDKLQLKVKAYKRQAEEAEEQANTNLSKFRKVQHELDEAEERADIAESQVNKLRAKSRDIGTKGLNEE

SMILES | Skeletal EC25 [1, 4] [µM] | Atrial EC25 [2, 5] [µM] | Ventricular EC25 [3, 6] [µM] | Skeletal EC25 [1, 7] [µM] | Atrial EC25 [2, 8] [µM] | Ventricular EC25 [3, 9] [µM] | other results
Cc1c(CC(=O)NC(C)c2cnc(C#N)cn2)c(=O)[nH]c2ccc(F)c(F)c12 (stereo in doubt) [compound 1145, (S)—N-(1-(5-cyanopyrazin-2-yl)ethyl)-2-(5,6-difluoro-4-methyl-2-oxo-1,2-dihydroquinolin-3-yl)acetamide] | 0.03 | 0.06 | 0.07 | – | – | – | –
Cc1nncc2[nH]c(=O)c(CC(=O)N[C@@H](C)c3ncc(C#N)cc3F)cc12 [compound 452] | – | – | – | 100.00 | 63.47 | 100.00 | –
Cc1c(CC(=O)N[C@@H](CO)c2ncc(F)cc2F)c(=O)[nH]c2ccnc(C#N)c12 [compound 262] | – | – | – | 0.13 | 0.19 | 0.67 | –
Cc1cnncc1[C@H](C)NC(=O)Cc1c(C)c2c(C)nccc2[nH]c1=O [compound 481] | – | – | – | 100.00 | 100.00 | 100.00 | –
Cc1c(C(F)(F)C(=O)N[C@@H](C)c2ncc(C#N)cn2)c(=O)[nH]c2ccc(F)c(C(F)(F)F)c12 (single isomer, unassigned) [Compound 2514] | 0.16 | 0.60 | 1.53 | – | – | – | –
Cc1c(C2(C(=O)N[C@@H](C)c3nccc(C#N)n3)CC2)c(=O)[nH]c2ccc(F)cc12 (single isomer, unassigned) [compound 4842] | 37.46 | 100.00 | 100.00 | – | – | – | –
CCOc1nccc2[nH]c(=O)c([C@H](C)C(=O)N[C@@H](C)c3ccc(F)cc3F)c(C(F)(F)F)c12 (single isomer, unassigned) [compound 415] | – | – | – | 0.13 | 2.22 | 12.58 | –
Cc1c(CC(=O)N[C@@H](C)c2ccc(F)cc2F)c(=O)[nH]c2cccc(F)c12 [compound 130] | 0.03 | 0.02 | 0.15 | – | – | – | –
C[C@H](NC(=O)[C@@H](C)c1cc2c(F)cccc2[nH]c1=O)c1ccc(F)cc1F (single isomer, unassigned) [compound 102] | 3.90 | 100.00 | 100.00 | – | – | – | –
CCCOc1nccc2[nH]c(=O)c(CC(=O)N[C@@H](C)c3ccc(F)cc3F)c(C)c12 [compound 384] | – | – | – | 0.04 | 0.21 | 11.67 | –
C[C@H](NC(=O)Cc1c(C2CC2)c2c(F)cccc2[nH]c1=O)c1ncc(C#N)cc1F [compound 1144] | 0.09 | 0.29 | 0.84 | – | – | – | –
N#Cc1cnc2c(c1)COC[C@@H]2NC(=O)Cc1cc2cc(F)c(F)cc2[nH]c1=O [compound 1055] | 18 | 100.00 | 100.00 | – | – | – | –
Cc1c(CC(=O)N[C@@H]2c3c(F)cc(F)cc3OC2(C)C)c(=O)[nH]c2ccnc(C#N)c12 (single isomer, unassigned) [compound 188] | – | – | – | 26.50 | 2.43 | 39.56 | –
Cc1c(CC(=O)N[C@H](C)c2ccc(C#N)cn2)c(=O)[nH]c2ccc(C(F)(F)F)nc12 [compound 459] | – | – | – | 100.00 | 3.13 | 100.00 | –
C[C@H](NC(=O)Cc1cc2c(F)nccc2[nH]c1=O)c1ccc(F)cc1F [compound 394] | – | – | – | 0.03 | 0.27 | 0.53 | –
Cc1c(CC(=O)N[C@@H](C)c2ccc(F)cc2F)c(=O)[nH]c2ccc(F)c(Br)c12 [compound 109] | 0.01 | 0.04 | 0.13 | – | – | – | –

SMILES | Skeletal EC25 [1, 4] [µM] | Atrial EC25 [2, 5] [µM] | Ventricular EC25 [3, 6] [µM] | Skeletal EC25 [1, 7] [µM] | Atrial EC25 [2, 8] [µM] | Ventricular EC25 [3, 9] [µM] | other results
N#Cc1ccc([C@@H](CO)NC(=O)Cc2c(C3CC3)c3cc(F)ccc3[nH]c2=O)c(F)c1 [compound 75] | 15.21 | 59.37 | 0.61 | – | – | – | –
CNc1nccc2[nH]c(=O)c(CC(=O)N[C@@H](C)c3ccc(F)cc3F)c(C)c12 [compound 354] | – | – | – | 0.19 | 2.11 | 49.13 | –
C[C@H](NC(=O)Cc1c(C(F)(F)F)c2c(C3CC3)nccc2[nH]c1=O)c1ccc(C#N)cn1 (single isomer, unassigned) [compound 3006] | – | – | – | 100.00 | – | 100.00 | Atrial EC25 (Y125 value, marked ‡) ([2]; porcine atria myofibrils, Y125 value (125% activity), not a Y75 value): 77.22‡ μM
C[C@H](NC(=O)C(F)(F)c1cc2cc(F)ccc2[nH]c1=O)c1nccc(C#N)n1 (single isomer, unassigned) [compound 2560] | – | 100.00 | 100.00 | – | – | – | Skeletal EC25 [1, 10]: 61.98‡ μM
C[C@@H](NC(=O)Cc1c(C(F)(F)F)c2c(C3CC3)nccc2[nH]c1=O)c1ccc(C#N)cn1 (single isomer, unassigned) [compound 3005] | – | – | – | 100.00 | 100.00 | 100.00 | –
Cc1c(F)ccc2[nH]c(=O)c(C(F)(F)C(=O)N[C@@H](C)c3ncc(C#N)cn3)c(C#N)c12 (single isomer, unassigned) [compound 2512] | – | 1.53 | 33.47 | – | – | – | Skeletal EC25 [1, 10]: 100.00‡ μM
Cc1c(CC(=O)N[C@H](C)c2ccc(C#N)cn2)c(=O)[nH]c2ccc(F)c(F)c12 [compound 45] | 0.12 | 0.07 | 0.42 | – | – | – | –
CC(NC(=O)Cc1cc2cc(F)ccc2[nH]c1=O)c1cc(C#N)c(F)s1 (stereo not drawn) [compound 4002] | – | – | – | – | – | – | Skeletal EC25 ([1]; Y75 value: concentration required to reduce myosin ATP-ase activity by 25%, Rabbit Psoas Prep pCa 25 GEOM_MEAN): 4.10 µM; Atrial EC25 ([2]; Y75 value: concentration required to reduce myosin ATP-ase activity by 25%, Porcine Atria Prep pCa 25 GEOM_MEAN): 1.60 µM; Ventricular EC25 ([3]; Y75 value: concentration required to reduce myosin ATP-ase activity by 25%, Porcine Ventricle Prep pCa 25 GEOM_MEAN): 100.00 µM
Cc1cc(C#N)cnc1[C@@H](C)NC(=O)Cc1c(O)c2c(C)c(F)ccc2[nH]c1=O [compound 1122] | 6.95 | 9.16 | 38.45 | – | – | – | –
Cc1cc(C#N)ccc1[C@H](C)NC(=O)Cc1c(O)c2cc(F)c(F)cc2[nH]c1=O [compound 1089] | 100.00 | 6.41 | 42.07 | – | – | – | –
C[C@H](NC(=O)Cc1cc2c(C3CC3)nccc2[nH]c1=O)c1ccc(F)cc1F [compound 432] | – | – | – | 0.47 | 16.07 | 80.53 | –
C[C@@H](NC(=O)C(F)(F)c1cc2c(F)c(F)ccc2[nH]c1=O)c1ncc(C#N)cn1 (single isomer, unassigned) [compound 2545] | 0.13 | 7.98 | 1.22 | – | – | – | –
Cc1c(C(F)(F)C(=O)N[C@@H](C)c2ncc(C#N)cc2F)c(=O)[nH]c2ccc(F)c(C#N)c12 (single isomer, unassigned) [compound 4836] | 0.02 | 0.17 | 0.15 | – | – | – | –
Cc1c(CC(=O)N[C@@H](C)c2ccc(C#N)nn2)c(=O)[nH]c2cc(F)c(F)cc12 [compound 1043] | 0.41 | 1.28 | 3.5 | – | – | – | –
Cc1nccc2[nH]c(=O)c(CC(=O)N[C@@H](CO)c3ccncc3)c(C)c12 [compound 293] | – | – | – | 73.40 | 100.00 | 100.00 | –
